Measured values: patent publication US20220386591A1, “CRYOPRESERVATION COMPOSITIONS AND METHODS INCLUDING GLYCEROL ESTER COMPONENTS” (THE SECANT GROUP LLC, priority 2021, published 2022)

Test system: Jurkat E6.1 cells (ATCC #TIB-152)
Experiment: Post-thaw viability of cells frozen immediately after addition of cryopreservative (trypan blue exclusion)
Assay type: cell-based
Conditions: 10 wt % DMSO, FIG. 1
Procedure: A glycerol ester component in the form of PGS was added to cell culture media containing Jurkat E6.1 cells (ATCC #TIB-152) at three different concentrations: 250 μg/mL (about 0.025 wt %), 500 μg/mL (about 0.05 wt %), and 1000 μg/mL (about 0.1 wt %). […] Cell culture media containing Jurkat E6.1 cells (ATCC #TIB-152) with no PGS and cell culture media containing Jurkat E6.1 cells (ATCC #TIB-152) with 10% DMSO served as controls. Cells were then immediately frozen at a rate of −1° C./min to −80° C. Once frozen, the cryopreserved cells were transferred to liquid nitrogen vapor phase storage for 72 hours. Following storage in a liquid nitrogen vapor phase, the cells were thawed and their viability was assessed through a trypan blue exclusion assay using a ThermoFisher Countess II FL automated cell counter to determine the percentage of viable cells.

C[S+](C)[O-] [DMSO, dimethyl sulfoxide]
cryoprotection of viable cells post-thaw (positive control): provided cryoprotection to essentially all of the viable cells
